Reference: US20190105367A1, “ANTIMICROBIAL 4-OXOQUINOLIZINES” (Emergent Product Development Gaithersburg Inc., priority 2011, published 2019)
≈ marks a conversion by molar mass, not a printed value. Like-named read-outs stand apart in the source and are kept apart here.

Legend:
[1] = tested on: strains of A. baumannii and one strain of Acinetobacter sp.; test: MIC with sub-inhibitory concentrations (0.25x MIC) of polymyxin B, panel of Acinetobacter strains (Example 4); type: cell-based
A. baumannii NCTC 13301 [2] = test: MIC without and with sub-inhibitory polymyxin B (Example 4); type: cell-based, Acinetobacter baumannii; conditions: A. baumannii NCTC 13301; +[…] PB; 2nd experiment
A. baumannii A489 = test: as above; type: cell-based, Acinetobacter baumannii; conditions: for MIC without PB/MIC + PB: A. baumannii A489; for MIC: Acinetobacter baumannii
A. baumannii A390 [3] = test: as above; type: cell-based, Acinetobacter baumannii; conditions: +0.06 μg/ml PB, 2nd experiment
A. baumannii ATCC 19606 [4] = test: Preliminary MBC without and with sub-inhibitory polymyxin B (Example 4); type: cell-based, Acinetobacter baumannii; conditions: Acinetobacter baumannii
A. baumannii A401 [5] = test: as above; type: cell-based, Acinetobacter baumannii; conditions: Acinetobacter baumannii
A. baumannii A472 [6] = test: as above; type: cell-based, Acinetobacter baumannii; conditions: Acinetobacter baumannii, A472, read-out: MBC +[…] PB, A. baumannii A472; +[…] polymyxin B; preliminary MBC; 1st experiment
A. baumannii A473 [7] = test: MIC without and with sub-inhibitory polymyxin B (Example 4); type: cell-based, Acinetobacter baumannii; conditions: +0.06 μg/ml PB, 2nd experiment
A. baumannii A387 [8] = test: as above; type: cell-based, Acinetobacter baumannii; conditions: for MIC without PB/MIC + PB: A. baumannii A387; for MIC: Acinetobacter baumannii
A. baumannii A401 [9] = test: as above; type: cell-based, Acinetobacter baumannii; conditions: for MIC: Acinetobacter baumannii
A. baumannii A387 [10] = test: Preliminary MBC without and with sub-inhibitory polymyxin B (Example 4); type: cell-based, Acinetobacter baumannii; conditions: Acinetobacter baumannii
A. baumannii NCTC 13301 [11] = test: MIC without and with sub-inhibitory polymyxin B (Example 4); type: cell-based, Acinetobacter baumannii
A. baumannii A472 [12] = test: as above; type: cell-based, Acinetobacter baumannii; conditions: 1st experiment
A. baumannii A390 [13] = test: Preliminary MBC without and with sub-inhibitory polymyxin B (Example 4); type: cell-based, Acinetobacter baumannii; conditions: Acinetobacter baumannii, A390, A. baumannii A390, +0.06 μg/ml PB, 2nd experiment, read-out: MBC
In short: (§1)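 After plating, cultures are held at 37° C for 18-20 hours; the endpoint is then scored by comparing colony growth against the positive control, with MBC defined as the lowest concentration showing roughly 90% reduction.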

A. baumannii NCTC 13301 [14] = test: as above; type: cell-based, Acinetobacter baumannii; conditions: Acinetobacter baumannii
In short: as §1

A. baumannii A14 [15] = test: as above; type: cell-based, Acinetobacter baumannii; conditions: Acinetobacter baumannii, 2nd experiment, read-out: MBC
In short: as §1

A. baumannii A473 [16] = test: as above; type: cell-based, Acinetobacter baumannii; conditions: Acinetobacter baumannii, A473, A. baumannii A473, +0.06 μg/ml PB, 2nd experiment, read-out: MBC
In short: as §1

A. baumannii A329 = test: as above; type: cell-based, Acinetobacter baumannii; conditions: Acinetobacter baumannii, A329, A. baumannii A329, +0.06 μg/ml PB, 2nd experiment, read-out: MBC
A. baumannii ATCC 19606 [17] = test: MIC without and with sub-inhibitory polymyxin B (Example 4); type: cell-based, Acinetobacter baumannii; conditions: for MIC without PB/MIC + PB: A. baumannii ATCC 19606; for MIC: Acinetobacter baumannii
A. baumannii A14 [18] = test: Preliminary MBC without and with sub-inhibitory polymyxin B (Example 4); type: cell-based, Acinetobacter baumannii; conditions: A. baumannii A14, preliminary MBC, 1st experiment
A. baumannii J2 = test: MIC without and with sub-inhibitory polymyxin B (Example 4); type: cell-based, Acinetobacter baumannii; conditions: for MIC without PB/MIC + PB: A. baumannii J2
A. baumannii A14 [19] = test: as above; type: cell-based, Acinetobacter baumannii; conditions: 2nd experiment; for MIC: Acinetobacter baumannii, A14, A. baumannii A14, read-out: MIC
[20] = tested on: Acinetobacter sp. (H064200250); test: as above; type: cell-based
A. baumannii A14 [21] = test: as above; type: cell-based, Acinetobacter baumannii; conditions: 1st experiment
[22] = ratio, PB 0.06 μg/ml, 1st experiment

## Cc1c(-c2ccc(N)c(F)c2)ccn2c(=O)c(C(=O)O)cc(C3CC3)c12 [Compound 1, 8-(3-fluoro-4-amino-phenyl)-1-cyclopropyl-9-methyl-4-oxo-quinolizine-3-carboxylic acid]
[1]; 1st experiment, […] polymyxin B, ATCC 19606, A329, A390 and A473 not taken
  MIC range with PB (0.25x MIC) Oct. 1, 2008 n = 8: ≤0.03 to 0.06 µg/mL
[1]; 2nd experiment, 0.06 μg/ml polymyxin B, all strains except the ATCC strain
  MIC range with PB (0.25x MIC) Oct. 14, 2008 n = 11: ≤0.03 to 2 µg/mL
A. baumannii NCTC 13301 [2]
  MIC without PB/MIC + PB: ≥1024
A. baumannii A489; +[…] PB, 2nd experiment
  MIC without PB/MIC + PB: ≥512
A. baumannii A489; ratio, PB […], 1st experiment
  MIC without PB/MIC + PB: ≥128
A. baumannii A489; A489, A. baumannii A489, +[…] PB, 2nd experiment, read-out: MIC
  MIC: ≤ 0.03 µg/mL
A. baumannii A489; A489, read-out: MIC +[…] PB, A. baumannii A489, +[…] polymyxin B, 1st experiment
  MIC: ≤ 0.03 µg/mL
A. baumannii A390 [3]; A. baumannii A390
  MIC without PB/MIC + PB: ≥512
A. baumannii A390 [3]; Acinetobacter baumannii, A390, A. baumannii A390, read-out: MIC
  MIC: ≤ 0.03 µg/mL
A. baumannii ATCC 19606 [4]; ATCC19606, A. baumannii ATCC 19606, +0.06 μg/ml PB, 2nd experiment, read-out: MBC
  MBC: ≤ 0.03 µg/mL
A. baumannii ATCC 19606 [4]; ATCC19606, read-out: MBC +0.06 μg/ml PB, A. baumannii ATCC 19606, +0.06 μg/ml polymyxin B, 1st experiment
  MBC: ≤ 0.03 µg/mL
A. baumannii A401 [5]; A401, A baumannii A 401, +0.06 μg/ml PB, 2nd experiment, read-out: MBC
  MBC: ≤ 0.03 µg/mL
A. baumannii A401 [5]; A401, read-out: MBC +0.06 μg/ml PB, A baumannii A 401, +0.06 μg/ml polymyxin B, 1st experiment
  MBC: ≤ 0.03 µg/mL
A. baumannii A472 [6]
  MBC: ≤ 0.03 µg/mL
A. baumannii A473 [7]; A. baumannii A473
  MIC without PB/MIC + PB: 8
A. baumannii A473 [7]; Acinetobacter baumannii, A473, A. baumannii A473, read-out: MIC
  MIC: 1 µg/mL (≈ 2.84 µM)
A. baumannii A387 [8]; +0.06 μg/ml PB, 2nd experiment
  MIC without PB/MIC + PB: ≥128
A. baumannii A387 [8]; [22]
  MIC without PB/MIC + PB: ≥32
A. baumannii A387 [8]; A387, A. baumannii A387, +0.06 μg/ml PB, 2nd experiment, read-out: MIC
  MIC: ≤ 0.03 µg/mL
A. baumannii A387 [8]; A387, read-out: MIC +0.06 μg/ml PB, A. baumannii A387, +0.06 μg/ml polymyxin B, 1st experiment
  MIC: ≤ 0.03 µg/mL
A. baumannii A401 [9]; A baumannii A 401, ratio, PB 0.06 μg/ml, 1st experiment
  MIC without PB/MIC + PB: ≥128
A. baumannii A401 [9]; A401, A baumannii A 401, +0.06 μg/ml PB, 2nd experiment, read-out: MIC
  MIC: ≤ 0.03 µg/mL
A. baumannii A401 [9]; A401, read-out: MIC +0.06 μg/ml PB, A baumannii A 401, +0.06 μg/ml polymyxin B, 1st experiment
  MIC: ≤ 0.03 µg/mL
A. baumannii A387 [10]; A387, A. baumannii A387, +0.06 μg/ml PB, 2nd experiment, read-out: MBC
  MBC: ≤ 0.03 µg/mL
A. baumannii A387 [10]; A387, read-out: MBC +0.06 μg/ml PB, A. baumannii A387, +0.06 μg/ml polymyxin B, 1st experiment
  MBC: ≤ 0.03 µg/mL
A. baumannii NCTC 13301 [11]; A. baumannii NCTC 13301, ratio, PB […], 1st experiment
  MIC without PB/MIC + PB: ≥1024
A. baumannii NCTC 13301 [11]; Acinetobacter baumannii, NCTC13301, read-out: MIC +[…] PB
  MIC: ≤ 0.03 µg/mL
A. baumannii A472 [12]; A. baumannii A472, ratio, PB […]
  MIC without PB/MIC + PB: ≥256
A. baumannii A472 [12]; Acinetobacter baumannii, A472, read-out: MIC +[…] PB, A. baumannii A472, +[…] polymyxin B
  MIC: ≤ 0.03 µg/mL
A. baumannii A390 [13]
  MBC: ≤ 0.03 µg/mL
A. baumannii NCTC 13301 [14]; NCTC13301
  MBC: ≤ 0.03 µg/mL
A. baumannii NCTC 13301 [14]; NCTC13301, read-out: MBC +[…] PB
  MBC: 0.06 µg/mL (≈ 0.17 µM)
A. baumannii A14 [15]; A14, A. baumannii A14, +0.06 μg/ml PB
  MBC: 0.06 µg/mL (≈ 0.17 µM)
A. baumannii A14 [15]; A14, A. baumannii A14, without PB
  MBC: 32 µg/mL (≈ 90.8 µM)
A. baumannii A473 [16]
  MBC: 1 µg/mL (≈ 2.84 µM)
A. baumannii A329
  MBC: 2 µg/mL (≈ 5.68 µM)
A. baumannii ATCC 19606 [17]; +0.06 μg/ml PB, 2nd experiment
  MIC without PB/MIC + PB: ≥8
A. baumannii ATCC 19606 [17]; [22]
  MIC without PB/MIC + PB: ≥8
A. baumannii ATCC 19606 [17]; ATCC19606, A. baumannii ATCC 19606, +0.06 μg/ml PB, 2nd experiment, read-out: MIC
  MIC: ≤ 0.03 µg/mL
A. baumannii ATCC 19606 [17]; ATCC19606, read-out: MIC +0.06 μg/ml PB, A. baumannii ATCC 19606, +0.06 μg/ml polymyxin B, 1st experiment
  MIC: ≤ 0.03 µg/mL
A. baumannii A14 [18]; +0.06 μg/ml polymyxin B
  MBC +0.06 μg/ml PB: 0.06 µg/mL
A. baumannii A14 [18]; Acinetobacter baumannii, without polymyxin B, read-out: MBC without PB
  MBC: 32 µg/mL (≈ 90.8 µM)
A. baumannii J2; +[…] PB, 2nd experiment
  MIC without PB/MIC + PB: ≥512
A. baumannii J2; ratio, PB […], 1st experiment
  MIC without PB/MIC + PB: ≥256
A. baumannii J2; Acinetobacter baumannii, J2, read-out: MIC +[…] PB, A. baumannii J2, +[…] polymyxin B, 1st experiment
  MIC: ≤ 0.03 µg/mL
A. baumannii A14 [19]; A. baumannii A14, +0.06 μg/ml PB
  MIC without PB/MIC + PB: 512
A. baumannii A14 [19]; +0.06 μg/ml PB
  MIC: 0.06 µg/mL (≈ 0.17 µM)
A. baumannii A14 [19]; without PB
  MIC: 32 µg/mL (≈ 90.8 µM)
[20]; Acinetobacter spp. H064200250 (OXA51), +[…] PB, 2nd experiment
  MIC without PB/MIC + PB: ≥512
[20]; Acinetobacter spp. H064200250, ratio, PB […], 1st experiment
  MIC without PB/MIC + PB: ≥256
[20]; Acinetobacter, read-out: MIC +[…] PB, Acinetobacter spp. H064200250, +[…] polymyxin B, 1st experiment
  MIC: ≤ 0.03 µg/mL
A. baumannii A14 [21]; +0.06 μg/ml polymyxin B
  MIC +0.06 μg/ml PB: 0.06 µg/mL
A. baumannii A14 [21]; Acinetobacter baumannii, 24 h, without polymyxin B, read-out: MIC without PB
  MIC: 32 µg/mL (≈ 90.8 µM)
A. baumannii A14 [21]; ratio, PB 0.06 μg/ml
  MIC without PB/MIC + PB: 512
